Source: patent publication US20090060928A1, “Topical Toll Like Receptor Ligands as Vaccine Adjuvants” (priority 2006, published 2009)

Assays:
anti-OVA IgG antibodies = assay: Anti-OVA antibodies in serum by ELISA after sc OVA immunization with adjuvant; format: in vivo, C57BI/6 mice
Source text: Fig. A: Groups of mice were immunized to OVA alone or followed by topical application of imiquimod to the site of immunization 3×/wk. or to OVA in ILK-2 liposomes. One week following 4 weekly immunizations, sera was collected and tested for anti-OVA IgG antibodies by ELISA. Anti-OVA IgG responses was greater in mice treated with imiquimod than in those immunized to OVA alone. It was as strong as that induced by IL-2 liposomes as the adjuvant. Fig. B: One week following 4 weekly immunizations, IgG1, IgG2a, IgG2b, and IgG3 anti-OVA antibodies was measured in these groups by ELISA, using subclass specific antibodies as probes.
(§1) FIG. 3A: Groups of mice were immunized to OVA alone or followed by topical application of imiquimod to the site of immunization 1×/wk. or to a site distal to the immunization. One week following 4 weekly immunizations, sera was collected and tested for anti-OVA IgG subclass antibodies by ELISA. Anti-OVA IgG responses was greater in mice treated with imiquimod both locally and distally than in those immunized to OVA alone. FIG. 3B: Triplicate mice were sacrificed 1 week after 4 immunizations and cellular immune responses to OVA-expressing target E.G7-OVA cells determined by ELIspot assay
(§2) In more detail, groups of 10 C57BI/6 mice were immunized sc weekly×4 to 0.1 mg of ovalbumin (OVA). Some groups were in addition treated with 5% imiquimod cream applied topically to the immunization site once or 3×/week. Control groups were immunized to PBS, to OVA encapsulated into IL-2 liposomes (which we have previously shown is one of the strongest adjvuanrts available), or to irradiated E.G7-OVA cells (a powerful stimulator of anti-OVA T-cell responses). Serum was collected from each mouse at baseline and following the 4th immunization, pooled by immunization group, and assayed for antibodies to OVA by ELISA.
In these experiments, groups of […] mice were immunized sc weekly×4 to 0.1 mg of ovalbumin (OVA) given in 0.1 ml of PBS injected in the lower abdominal region. One group of mice was also treated with 5% imiquimod applied topically to the skin at a site distal (in the nape of the neck) to the immunization site 1×/week.

OVA positive tumor cells = assay: Vaccine-induced tumor protective immunity against lethal challenge; format: in vivo, mice; conditions: 5% cream topically over site of sc OVA immunization
Source text: Importantly, the potency of imiquimod was as great as that of the strongest adjuvant we have studied to date in mice but with less local toxicity.

[1] = Local toxicity of the adjuvant; format: in vivo; conditions: adjuvant with sc OVA immunization
E.G7-OVA cells = assay: ELISPOT (gamma-interferon release) of spleen cells for T-cell response to OVA positive target cells; format: in vivo, C57BI/6 mice; conditions: for cellular response to OVA by ELISPOT: FIG. 3B; for T-cell (cellular) response by ELISPOT: FIG. 2A
Source text: FIG. 1A: Mice were immunized to OVA with or without topical application of imiquimod treatment 1× or 3×/wk following each immunization. Spleen cells were collected from each group 1 week following 4 immunizations, and tested by ELISPOT (based on gamma-interferon release) for T-cell response to OVA positive target cells (E.G7-OVA). FIG. 2B Mice were immunized to OVA with topical application of imiquimod 3×/week or with OVA encapsulated into IL-2 liposomes. Imiquimod boosted T-cell responses more strongly than IL-2 liposomes.
as §1, §2
Imiquimod boosted in particular Ig2a and IgG2b responses which were almost undetectable in mice immunized to OVA alone (see FIG. 1 B). This is consistent with the known capacity of this agent to preferentially boost Th1 responses. […] No T-cell responses were detectable in mice immunized similarly to OVA alone.
By contrast, no significant T-cell responses above PBS controls were detectable in mice immunized similarly to OVA alone. We have not studied the adjuvant activity of other TLR receptor ligands such as resiquimod and CpG ODN applied topically away from the immunization site. […] Thus, it is reasonable to expect that all of these will also retain adjuvant activity when applied topically directly over, or away, from the immunization site. Because their specific mechanism of action differs from that of imiquimod, they may have stronger adjuvant activity or may be better able to enhance specific type of immune responses than imiquimod. Combinations of TLR ligands may be able to enhance stronger or broader type of immune response than any one individual TLR ligand alone. This invention is intended to cover these different possibilities.

[2] = topical imiquimod at immunization site, vs OVA only, FIG. 1B

SMILES: CC(C)Cn1cnc2c(N)nc3ccccc3c21 [imiquimod]
- overall IgG anti-OVA antibody response (anti-OVA IgG antibodies; OVA 0.1 mg sc weekly x4 + topical imiquimod at immunization site 3x/wk, vs OVA alone, FIG. 1A): considerably greater
- IgG2a titer, times stronger than OVA alone (anti-OVA IgG antibodies; distal imiquimod treatment): 25 times
- IgG2b titer, stronger than OVA alone (anti-OVA IgG antibodies; distal imiquimod treatment): 125
- IgG2a titer, times stronger than OVA alone (anti-OVA IgG antibodies; local imiquimod treatment): 125 times
- IgG2b titer, stronger than OVA alone (anti-OVA IgG antibodies; local imiquimod treatment): 125
- IgG1 anti-OVA antibody response (anti-OVA IgG antibodies; [2]): reduced
- IgG2a anti-OVA antibody response (anti-OVA IgG antibodies; [2]): markedly boosted
- IgG2b anti-OVA antibody response (anti-OVA IgG antibodies; [2]): markedly boosted
- anti-OVA IgG subclass response (anti-OVA IgG antibodies; topical imiquimod both local and distal to vaccine injection site, vs OVA alone, FIG. 3A): considerably greater
- vaccine-induced tumor protective immunity (OVA positive tumor cells): markedly increased
- local toxicity [1]: no toxicity at all
- cellular response to OVA by ELISPOT (E.G7-OVA cells; distal application of imiquimod): strong cellular responses
- T-cell (cellular) response by ELISPOT (E.G7-OVA cells; imiquimod applied to immunization site 1x/wk following each immunization): slight response
- T-cell (cellular) response by ELISPOT (E.G7-OVA cells; imiquimod applied to immunization site 3x/week): very strong response
- cellular response to OVA by ELISPOT (E.G7-OVA cells; local application of imiquimod): strong cellular responses
- T-cell response compared with IL-2 liposomes (E.G7-OVA cells; topical imiquimod 3x/week vs OVA in IL-2 liposomes, FIG. 2B): more potent stimulator of T-cell responses than IL-2 liposomes
